Data: patent US20210113492A1, “METHOD FOR INHIBITING PROLIFERATION AND METASTASIS OF CANCER CELLS BY USING NAPHTHOQUINONE DERIVATIVE” (National Tsing Hua University, priority 2019, published 2021)
≈ marks a conversion by molar mass, not a printed value.

Experiments:
[1] = test system: human non-small cell lung carcinoma cells (H1299); assay: MTT survival assay, H1299; type: cell-based; details: NCI-H1299, 48 h, read-out: IC50, survival rate
Experimental: According to the present invention, human non-small cell lung carcinoma cell H1299 were obtained from ATCC (ATCC® CRL-5803™) cultured in Roswell Park Memorial Institute (RPMI) 1640 medium (Invitrogen) containing 10% FBS, 1% L-Gln and 1% AA. Cells were maintained in a humidified atmosphere containing 5% CO2 at 37° C., and the culture medium was replaced every 2 days.
(§1) Isoplumbagin (AKOS006277326, acquired from AKos GmbH, Steinen, Germany) was dissolved in dimethyl sulfoxide (DMSO) and added to the medium, so that the final concentration of DMSO was less than 0.1%. The survival rate of isoplumbagin on OC3-IV2, U87, H1299 and PC3 cell lines was determined using the 3-(4,5-dimethylthiazol-2-yl)-2,5-diphenyltetrazolium bromide (MTT; Sigma-Aldrich) assays. 3×10^3 cells/well were seeded in 96-well plates. After incubation for 24 h, cells were treated with isoplumbagin at various concentrations (0, 1, 5, 10, 25, 50 and 100 μM) and incubated for a further 48 h. At the end of treatment, 10 μL 5 mg/mL MTT was added to each well. After incubation at 37° C. for 3 h, medium was removed and DMSO was added to each well to dissolve reduced MTT product formazan. The absorbance of dissolved formazan was measured at 550 nm wavelengths by a spectrophotometer. […]

[2] = test system: oral squamous cell carcinoma cells (OC3-IV2); assay: Oxygen consumption rate in intact cells (O2k Oxygraph); type: cell-based, human; details: 2.5 μM, one independent experiment
Experimental: Oxygen consumption rate (OCR) in intact cells suspension was measured by O2k Oxygraph (Oroboros Instruments). DMSO or 2.5 μM isoplumbagin treated cells were detached from the plate by trypsinization and suspended at 5×10^5 cells/ml in DMEM/KSFM medium supplemented with 10% FBS into the O2k chambers. Oxygen consumption rate of DMSO or isoplumbagin treated cells samples were measured by adding 0.5 μM oligomycin, 0.5 μM FCCP, 1 μM rotenone and 1 μM antimycin A.
FIGS. 6A and 6B show the inhibitory effect of isoplumbagin on mitochondrial function and complex IV activity of oral squamous cell carcinoma cells (OC3-IV2). Oxygen consumption rate (OCR) of OC3-IV2 cells treated with DMSO (as control) or 2.5 μM isoplumbagin were measured by Oroboros instruments (FIG. 6A). […] OC3-IV2 cells treated with DMSO or 2.5 μM isoplumbagin were permeabilized with 5 μM digitonin (Dig) and added indicated substrates and inhibitors, and then mitochondria complex I/IV activity were determined by Oroboros instruments (FIG. 6B). Glu/Mal: glutamate (10 mM) and malate (2 mM), ADP (5 mM), Omy: oligomycin (0.5 μM), FCCP (0.5 nM), Rot: rotenone (1 μM), Ama: antimycin A (2 μM), TMPD: tetramethyl-p-phenylenediamine (0.1 mM), Asc: ascorbate (0.4 mM) and NaN3 5 mM. Data from three independent experiments are presented as mean ±SEM (*P<0.05, paired Student's t-test).

[3] = test system: human primary glioblastoma cells (U87); assay: Mitochondrial morphology and distribution by immunofluorescence staining, U87; type: cell-based; details: 1 μM or 2.5 μM, 24 hours, anti-TOM20 staining
Experimental: The effects of isoplumbagin on mitochondrial morphology and distribution of OC3-IV2, U87, H1299 and PC3 cell lines were measured by immunofluorescence staining After OC3-IV2, U87, H1299, and PC3 cells were treated with DMSO, 1 μM, or 2.5 μM isoplumbagin for 24 hours, cells were fixed by 4% (v/v) paraformaldehyde and permeabilized by 0.1% (v/v) Triton X-100. Cells were incubated in blocking buffer containing 1% bovine serum albumin. After blocking, cells were incubated overnight with indicated primary antibodies against TOM20 (a mitochondria marker, sc-11415, Santa Cruz), and then incubated with Alexa Fluor 488-conjugated secondary antibodies (A11001, Invitrogen). Nucleus was stained with DAPI, actin was stained with rhodamine phalloidin (A12379, Invitrogen) and cells were mounted using Prolong Gold reagent (P36930, Invitrogen). 63 images were taken by LSM800 confocal microscopes (Zeiss).
FIGS. 5A-5D show the effect of isoplumbagin on mitochondrial morphogenesis and distribution of oral squamous cell carcinoma cells (OC3-IV2), human primary glioblastoma cells (U87), human non-small cell lung carcinoma cells (H1299) and human prostate cancer cells (PC3). Cells treated with either solvent control (DMSO) or isoplumbagin were determined by immunofluorescence staining using anti-TOM20 (mitochondria, green) antibody, rhodamine phalloidin (actin, red) and DAPI (nucleus, blue). […]

[4] = test system: human primary glioblastoma cells (U87); assay: MTT survival assay, U87; type: cell-based; details: 48 h, read-out: IC50, survival rate
Experimental: According to the present invention, Human primary glioblastoma cell line U87 were obtained from the American Type Culture Collection (ATCC® HTB-14™, Manassas, Va., USA) and grown in DMEM medium supplemented with 10% FBS, 1% MEM Non-Essential Amino Acids Solution (Invitrogen) and 1% penicillin/streptomycin (Invitrogen). The incubator was maintained at 5% CO2 and a constant temperature of 37° C., and the culture medium was changed every two days.
as §1

[5] = test system: prostate cancer cells (PC3); assay: MTT survival assay, PC3; type: cell-based; details: Homo sapiens, 48 h, read-out: IC50, survival rate
Experimental: According to the present invention, human prostate cancer cell line PC3 cells were obtained from ATCC (ATCC® ^CRL-1435™) and maintained in DMEM medium supplemented with 10% FBS, 1% L-Gln and 1% AA. Cells were maintained in an atmosphere containing 5% CO2 at 37° C., and the culture medium was replaced every 2 days.
as §1

CC1=CC(=O)c2cccc(O)c2C1=O [isoplumbagin, 5-hydroxy-3-methyl-1,4-naphthoquinone]
IC50 [1]: 0.28 µg/mL (≈ 1.49 µM) | mitochondrial function (oxygen consumption rate) [2]: can reduce mitochondrial function | mitochondrial morphogenesis and distribution [3]: can alter the mitochondrial morphogenesis and distribution | IC50 [4]: 0.45 µg/mL (≈ 2.39 µM) | IC50 [5]: 1.13 µg/mL (≈ 6 µM)
